Experiments:
Cavia porcellus [1] = test: Cardiotoxicity in iv dosed Dunkin-Hartley guinea pig assessed as drug level required to evoke 50 ms QTc prolongation administered as 3 fold cumulative doses measured every 10 seconds at end of every 20 mins follow up period of individual dose by ECG
Cavia porcellus [2] = test: Cardiotoxicity in Dunkin-Hartley guinea pig assessed as maximal QTc prolongation time at 10 mg/kg, iv administered as 3 fold cumulative doses measured every 10 seconds at end of every 20 mins follow up period of individual dose by ECG; type: toxicity, organism-based; set-up: dose 10 mg/kg, route intravenous; conditions: in vivo
[3] = molecular target: Voltage-gated inwardly rectifying potassium channel KCNH2 (Homo sapiens, UniProt Q12809); test: Inhibition of human ERG channel in HEK293 cells by voltage-clamp method; conditions: for pIC50(uM): human
Cavia porcellus [4] = test: Toxicity to Dunkin-Hartley guinea pig assessed as marked bradyarrhythmia and death at 10 mg/kg, iv; type: organism-based; set-up: dose 10 mg/kg, route intravenous; conditions: in vivo
Cavia porcellus [5] = test: Cardiotoxicity in Dunkin-Hartley guinea pig assessed as maximal QTc prolongation time at 3 mg/kg, iv administered as 3 fold cumulative doses measured every 10 seconds at end of every 20 mins follow up period of individual dose by ECG; type: toxicity, organism-based; set-up: dose 3 mg/kg, route intravenous; conditions: in vivo

Sequence of Voltage-gated inwardly rectifying potassium channel KCNH2 (Q12809 whole entry): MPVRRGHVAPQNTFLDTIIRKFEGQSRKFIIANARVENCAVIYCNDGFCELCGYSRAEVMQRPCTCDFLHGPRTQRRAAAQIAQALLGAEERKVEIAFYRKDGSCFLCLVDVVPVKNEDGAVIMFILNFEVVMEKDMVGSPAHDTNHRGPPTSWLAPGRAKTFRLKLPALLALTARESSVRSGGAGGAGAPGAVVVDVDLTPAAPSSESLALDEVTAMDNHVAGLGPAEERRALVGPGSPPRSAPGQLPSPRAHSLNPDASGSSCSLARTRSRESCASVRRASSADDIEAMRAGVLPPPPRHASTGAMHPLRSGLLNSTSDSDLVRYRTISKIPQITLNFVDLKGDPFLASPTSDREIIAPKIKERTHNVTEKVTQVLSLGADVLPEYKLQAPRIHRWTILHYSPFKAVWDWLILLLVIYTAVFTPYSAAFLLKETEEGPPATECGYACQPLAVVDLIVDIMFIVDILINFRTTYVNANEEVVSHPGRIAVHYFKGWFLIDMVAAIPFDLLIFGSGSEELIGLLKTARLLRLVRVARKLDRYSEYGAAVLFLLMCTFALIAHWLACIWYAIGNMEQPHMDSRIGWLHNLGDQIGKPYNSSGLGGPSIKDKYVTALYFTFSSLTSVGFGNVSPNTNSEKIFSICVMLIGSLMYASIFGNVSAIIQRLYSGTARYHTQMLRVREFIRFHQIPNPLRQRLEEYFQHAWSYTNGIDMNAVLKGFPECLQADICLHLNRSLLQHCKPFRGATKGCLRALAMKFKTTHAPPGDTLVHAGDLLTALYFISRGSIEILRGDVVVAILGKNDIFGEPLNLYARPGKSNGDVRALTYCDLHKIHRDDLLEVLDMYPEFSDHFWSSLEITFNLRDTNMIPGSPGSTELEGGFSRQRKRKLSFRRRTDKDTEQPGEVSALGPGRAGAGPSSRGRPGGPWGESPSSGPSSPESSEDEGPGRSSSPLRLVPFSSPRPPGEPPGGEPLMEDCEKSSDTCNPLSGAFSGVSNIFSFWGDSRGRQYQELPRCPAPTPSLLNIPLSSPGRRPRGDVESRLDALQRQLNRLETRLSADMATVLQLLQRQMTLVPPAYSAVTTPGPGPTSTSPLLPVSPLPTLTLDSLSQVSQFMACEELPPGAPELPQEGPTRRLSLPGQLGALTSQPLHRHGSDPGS

SMILES | EC50 (Cavia porcellus [1]) | pEC50 (Cavia porcellus [1]) | Emax (Cavia porcellus [2]) | other results
CCCN(CCC)C1CCc2cccc(O)c2C1 (stereo not given) [8-OH-DPAT] | 4.57 µmol/kg | 2.95 | 116.3 ms | –
O=C(CCCN1CCC(O)(c2cccc(C(F)(F)F)c2)CC1)c1ccc(F)cc1 [TRIFLUPERIDOL] | 7.65 µmol/kg | 2.51 | 74.7 ms | –
CCC1(c2ccccc2)C(=O)NC(=O)NC1=O [PHENOBARBITAL] | – | – | – | pIC50(uM) ([3]; HEK293 cells expressing human ERG channel): -3.48
CN1CCN(C2=Nc3ccccc3Nc3sc(CO)cc32)CC1 | – | – | – | IC50 [3]: 11.5 µM
CCCCNc1ccc(C(=O)OCCN(C)C)cc1 [TETRACAINE] | 9.04 µmol/kg | 2.62 | 91.5 ms | –
CN1CCC[C@H]1c1cccnc1 [NICOTINE] | – | – | – | pIC50(uM) ([3]; hek293): -2.39
Cc1nc2sccn2c(=O)c1CCN1CCC(=C(c2ccc(F)cc2)c2ccc(F)cc2)CC1 [RITANSERIN] | 0.19 µmol/kg | 4.05 | – | Activity (Cavia porcellus [4]): Toxic; Emax (Cavia porcellus [5]): 106.8 ms
O=C(CCCN1CCC(O)(c2ccc(Cl)cc2)CC1)c1ccc(F)cc1 [HALOPERIDOL] | 0.88 µmol/kg | 3.48 | 123.3 ms | –
Oc1ccc(CCN2CCC(Nc3nc4ccccc4n3Cc3ccc(F)cc3)CC2)cc1 [DESMETHEYLASTEMIZOLE] | – | – | – | IC50 [3]: 0.001 µM
O=C(CCCN1CCC2(CC1)C(=O)NCN2c1ccccc1)c1ccc(F)cc1 [SPIPERONE] | – | – | 100 ms | –
CNCCC(Oc1ccccc1OC)c1ccccc1 (stereo not given) [NISOXETINE] | – | – | 37.5 ms | –
COc1ccc(CCN2CCC(Nc3nc4ccccc4n3Cc3ccc(F)cc3)CC2)cc1 [ASTEMIZOLE] | 0.39 µmol/kg | 3.74 | – | –
CN1CC(=O)N2[C@H](c3ccc4c(c3)OCO4)c3[nH]c4ccccc4c3C[C@@H]2C1=O | – | – | – | IC50 [3]: 100 µM
C=C[C@H]1C[N@@]2CC[C@H]1C[C@@H]2[C@@H](O)c1ccnc2ccc(OC)cc12 [QUINIDINE] | 8.34 µmol/kg | 2.55 | 78.6 ms | –
CC(C)NCC(O)c1ccc(NS(C)(=O)=O)cc1 (stereo not given) [SOTALOL] | 6.2 µmol/kg | 2.77 | 97.3 ms | –
COC(=O)C1=CC[C@@H]2CC[C@H]1N2C [METHYLECGONIDINE] | – | – | – | pIC50(uM) ([3]; hek293): -2.23
COc1cc(N)c(Cl)cc1C(=O)NC1CCN(CCCOc2ccc(F)cc2)CC1OC (stereo not given) [CISAPRIDE] | 2.12 µmol/kg | 3 | 81.9 ms | –

From ChEMBL document CHEMBL1154445, “Identification of "toxicophoric" features for predicting drug-induced QT interval prolongation” (Eur J Med Chem, 2008)
